Reference: patent US20030087861A1, “Combined approach to treatment of cancer using a c-myc antisense oligomer” (priority 2001, published 2003)

Assays:
[1] = test system: Lewis lung carcinoma (LLC1) tumors; assay: Lewis lung carcinoma (LLC1) subcutaneous tumor model, tumor area growth and tumor mass; assay type: in vivo, C57BL/6J mice; parameters: Tumor Growth Rate (TGR): unit not given beside the values; conditions: for Tumor Mass (gm ± STE): LLC1 tumor bearing mice, IP dosing per Table 2, combinations in alternating regimen (chemotherapy days 2-4, 14-16; PMO days 6-12, 18-23), mass at euthanization; for Tumor Growth Rate (TGR): linear regression of change in tumor area day 14 to 25, slope ± standard deviation, IP dosing per Table 2, combinations in alternating regimen; for % of Saline TGR: tumor growth rate relative to saline group, combinations in alternating regimen; for antitumor effect / tumor growth (in words): single agent, or staggered (alternating) regimen with the PMO after chemotherapy
Description: Examples are described in Smith et al., 2000. The model is based on the transplantation of Lewis lung cells (LLC1), a highly tumorigenic lung carcinoma cell line, into syngeneic […] mice. LLC1 produce discernable tumors by day 4 when 200,000 cells are transplanted subcutaneously onto the right flanks of C57-BL mice. Therapeutic efficacy was evaluated based on daily caliper measurements of tumor length and width and tumor weights at the end of 25 day studies. A 20 base PMO antisense to c-myc mRNA (AVI-4126, SEQ ID NO:1) was evaluated for efficacy in the model. […] AVI-4126 was also administered i.p. (300 μg/mouse/day) in combination with chemotherapy. Co-administration of cisplatin (83 μg/mouse/day) on days 2-4 and 13-15 with AVI-4126 on days 2-8 and 13-19 had no additional effect on tumor growth inhibition versus cisplatin alone (Example 1).
Tumor cells. The Lewis lung cell line (LLC1) used in the studies described herein was derived from the Lewis lung carcinoma established in 1951 by Dr. M. R. Lewis and has been utilized for the evaluation of cancer chemotherapeutic agents Mayo, 1972; Bertram et al., 1980). Lewis lung carcinoma cells (ATCC, Manassas, Va.) were maintained in DMEF-12 medium supplemented with 10% fetal bovine serum, penicillin (100 units/mL), streptomycin (100 μg/mL), and amphotericin (0.25 μg/mL) at 37° C. in a 5% CO2/95% air humidified incubator. Cells were harvested as an approximately 70% confluent culture of log growth phase at the time of transplant and were injected as a cell suspension in media at a concentration of 200,000 cells per 100 μl injection.
Syngeneic mice. C57BL/6J mice (Simonsen, Gilroy, Calif.) weighing 22 to 24 g were housed in sterile plastic cages at the Laboratory Animal Resources Facility at Oregon State University (OSU), Corvallis, Oreg. Mice were given access to rodent chow (Harlan Teklad, Madison, Wis.) and tap water ad libitum and exposed to 12 hour light/dark cycles. All animal protocols conformed to the ethical guidelines of the 1975 Declaration of Helsinki and were approved by the ‘Institutional Animal Care and Use Committee’ of OSU.
Statistical Analysis. All data are reported as the mean ±SEM were determined by the computer program InStat2 (GraphPad, San Diego). The p values were calculated by InStat2 using ANOVA and the Tukey multiple comparison test. Graphs, linear regression, and slopes were generated using Prism v2.0 (GraphPad).
Tumor studies with AVI-4126 and Chemotherapy Following a 5 day acclimation period, C57BL/6J mice (Simonsen, Gilroy, CA) cared for as set forth above, were anesthetized with isoflurane, shaved, and injected subcutaneously in the right rear flank with approximately 200,000 viable LLC1 cells (study day 0). Injection sites were monitored daily to ensure that solid, homogeneous tumor growth was consistently obtained 4 days after LLC1 cell injection. Chemotherapy injections were prepared fresh daily before i.p injection (see Table 1). All PMO's and cisplatin (Sigma, St. Louis, Mo.) were dissolved in sterile, apyrogenic saline (Sigma) adjusted to an injection volume of 0.1 ml. A Taxol stock solution (6 mg/ml in Cremophore EL and ethanol, Bristol Myers Squibb, Syracuse, N.Y.) was diluted to 1 mg/ml in 1× PBS prior to injection. Etoposide (Sigma) stock solutions were prepared by dissolving in 70% ethanol at 11 mg/ml followed by dilution with saline to a final concentration of 5 mg/ml. 5-FU (Calbiochem) was dissolved in saline at a concentration of 12.5 mg/ml.
Animals were treated as described. Therapeutic efficacy was evaluated based on daily measurement of tumor area (length x width, cm^2) with digital calipers and tumor mass determined at the time of euthanization. Mice in all studies were euthanized by asphyxiation with CO2 on the final day of PMO treatments. […]

[2] = parameters: species or system C57BL/6J mice; conditions: mouse, in vivo, ip
Description: HPLC detection of AVI-4126 in LLC1 tumor tissue. The presence of AVI-4126 in tumor tissue lysates (prepared 4 hours after a single injection of 100 μg of AVI-4126 into tumor bearing mice) was determined via a 5′-flouresceinyl DNA:AVI-4126 (FDNA:AVI-4126) duplex detection method developed at AVI BioPharma (Corvallis, Oreg.). Briefly, 500 ng of internal standard (10 μl of a […] of 0.025M Tris buffer, pH=8) of a 15mer internal PMO standard complementary to the FDNA probe (5′-GAGGGGCATCGTCGC-3′ (SEQ ID NO: 14)) was added to each tumor tissue lysate. The lysate was combined with 250 μl methanol and mixed thoroughly. The sample was centrifuged 10 minutes at 15,000× g and the supernatant was removed and heated to 70° C. for g 10 minutes. […]
The entire 100 μl sample was then analyzed for the presence of FDNA:AVI-4126 duplex using reverse phase HPLC with fluorescence detection. The sample was injected into a Dionex DNAPac PA-100 column (4×250) using a Varian HPLC pump (model 9010 inert) equipped with a fluorescence detector and Al-200 autosampler (100 μl injector loop volume). […] The pump gradient program was 90% A+10% B (0 min) and 55% A+45% B (20 min.) at a flow rate of 1.5 ml/min with fluorescence detection at a 494 nm (excitation) and 518 nm emission wavelengths. […]

[3] = ICP-MS detection and quantitation of platinum/cisplatin in LLC1 tumor tissue; assay type: in vivo, C57BL/6J mice; conditions: data not shown
Description: ICP-MS Detection and Quantitation of platinum/cisplatin. A 200 μL aliquot of tissue lysate (40 mg of LLC1 tumor tissue) was dissolved in 1.33 mL of aqua regia followed by a 10 fold dilution. The samples were then analyzed by ICP-MS technique for the presence of Pt according to the method of Long et al (16) by Anatek Labs (Moscow, ID).

[4] = test system: c-myc protein; assay: Immunoblot analysis of c-myc protein in LLC1 tumor lysates; assay type: in vivo, mouse; conditions: for effect on c-myc levels in tumor tissue (in words): compared to saline
Description: Immunoblot analysis of c-myc protein. All antibodies were obtained from Santa Cruz Biotechnology (Santa Cruz, Calif.). Three-hundred micrograms of LLC1 protein lysate was analyzed on a 5% SDS/acrylamide stacking gel with a 12% v/v sodium dodecylsulfate (SDS)/acrylamide separating gel. Gels were blotted, probed, and visualized according to standard Western blotting protocols. Membranes were probed with rabbit anti-mouse c-myc polyclonal antibodies N-262 (sc-764) or C-19 (sc-788) diluted 1:2000 in blocking buffer (Genotech) followed by goat-anti rabbit HRP-conjugated antibody (sc-2054). The relative amount of c-myc and actin protein was visualized by ECLplus (Amersham, Piscataway, N.J.) and analyzed on a Kodak 440 Image Station using 1 D Image Analysis software (Kodak, Rochester N.Y.). Membranes were then soaked in stripping buffer (Genotech) for 20 minutes at 25° C. and reprobed with a 1:2000 dilution of goat anti-mouse β-actin polyclonal antibody (sc-1616), which served as a protein loading control, followed by donkey anti-goat HRP-conjugated antibody (sc-2056).
An initial study was performed to determine AVI-4126 levels in the tumor and to evaluate sequence specific inhibition of c-myc protein levels. Tumor bearing mice 24 days post LLC1 transplant were given injections of either saline, AVI-4126 or scrambled control (100 μg/mouse IP). Tumors were excised 4 hours later and evaluated for AVI-4126 and analyzed by immunoblot for c-myc protein, as described below.
Animals were treated as described. Therapeutic efficacy was evaluated based on daily measurement of tumor area (length x width, cm^2) with digital calipers and tumor mass determined at the time of euthanization. Mice in all studies were euthanized by asphyxiation with CO2 on the final day of PMO treatments. Tumors were immediately removed, weighed and approximately 0.25 g tumor tissue was homogenized in 1.0 ml Tissue-PE lysis buffer (Genotech, St. Louis, Mo.) containing protease inhibitor cocktail tablets (Complete™ Mini EDTA-free, Boehringer-Mannheim) which were dissolved in the lysis buffer 30 minutes before tissue homogenization. Lysates were centrifuged at 15,000× g for 15 minutes at 4° C. and 150 μl aliquots of supernatant were combined 1:1 with electrophoresis sample buffer and boiled at 100° C. for 5 minutes.

[5] = single injection 100 μg/mouse IP, tumors excised 4 hours later, FIG. 5A

With “RAD51AS: control PMO, mouse RAD51 sequence: CAAGCTGCATTTGCATAGCCAT (antisense CAAGCTGCATTTGCATAGCCAT; all phosphorodiamidate morpholino (PMO))” the “Tumor Mass (gm ± STE)” value [1] was 1.193 ± 0.166 gm, the “Tumor Growth Rate (TGR)” value [1] was 0.198 ± 0.017 and the “% of Saline TGR” value [1] was 97.1%.

With `COc1cc([C@@H]2c3cc4c(cc3[C@@H](O[C@@H]3O[C@@H]5CO[C@@H](C)O[C@H]5[C@H](O)[C@H]3O)[C@H]3COC(=O)[C@H]23)OCO4)cc(OC)c1O` [etoposide] the “Tumor Mass (gm ± STE)” value [1] was 0.970 ± 0.244 gm, the “Tumor Growth Rate (TGR)” value [1] was 0.153 ± 0.025 and the “% of Saline TGR” value [1] was 75.0%.

In the case of “p21AS: control PMO, mouse p21 sequence: CATCACCAGGATTGGACATGG (antisense CATCACCAGGATTGGACATGG; all phosphorodiamidate morpholino (PMO))”, the “Tumor Mass (gm ± STE)” value [1] is reported as 1.260 ± 0.389 gm, the “Tumor Growth Rate (TGR)” value [1] is reported as 0.184 ± 0.030 and the “% of Saline TGR” value [1] is reported as 90.2%.

With “AVI-4126: 20 base PMO antisense to c-myc translation start site: ACGTTGAGGGGCATCGTCGC (antisense ACGTTGAGGGGCATCGTCGC; all phosphorodiamidate morpholino (PMO))” the “FDNA:AVI-4126 duplex fluorescence peak in tumor tissue lysate” value [2] was “readily detectable”, the “degradation of AVI-4126 in tumor tissue” value [2] was “No evidence of degradation” and the “effect of AVI-4126 administration on platinum levels in tumor tissue” value [3] was “did not effect platinum levels”. The “Tumor Mass (gm ± STE)” value [1] was 1.788 ± 0.651 gm, the “Tumor Growth Rate (TGR)” value [1] was 0.212 ± 0.031 and the “antitumor effect / tumor growth (in words)” value [1] was “failed to significantly reduce tumor growth”. For the same compound, the “% of Saline TGR” value [1] was 103.9%, the “inhibition of c-myc levels compared to saline control, n-terminal antibody” value ([4]; band intensity normalized to β-actin, AVI-4126 alone 300 μg/mouse/day IP, FIG. 6A) was 74% and the “inhibition of c-myc levels compared to saline control, c-terminal antibody” value ([4]; band intensity normalized to β-actin, AVI-4126 alone 300 μg/mouse/day IP, FIG. 6B) was 61%. For the same compound, the “reduction of c-myc levels relative to saline control” value [4, 5] was 77% and the “reduction of c-myc levels relative to scrambled PMO control” value [4, 5] was 63%.

In the case of `N.N.[Cl][Pt][Cl]` [cisplatin, cis-diamminedichloroplatinum], the “Tumor Mass (gm ± STE)” value [1] is reported as 0.550 ± 0.081 gm, the “necropsy appearance of tumors” value ([1]; cisplatin alone, and cisplatin plus co-administered AVI-4126) is reported as “highly invasive and vascularized” and the “Tumor Growth Rate (TGR)” value [1] is reported as 0.101 ± 0.011. The “antitumor effect / tumor growth (in words)” value [1] was “significantly lower”, the “% of Saline TGR” value [1] was 49.5% and the “effect on c-myc levels in tumor tissue (in words)” value [4] was “no statistical difference”.

For `CC(=O)O[C@H]1C(=O)[C@@]2(C)[C@H]([C@H](OC(=O)c3ccccc3)[C@]3(O)C[C@H](OC(=O)[C@H](O)[C@@H](NC(=O)c4ccccc4)c4ccccc4)C(C)=C1C3(C)C)[C@]1(OC(C)=O)CO[C@@H]1C[C@@H]2O` [Taxol, Paclitaxel], the “Tumor Mass (gm ± STE)” value [1] was 1.827 ± 0.210 gm, the “Tumor Growth Rate (TGR)” value [1] was 0.234 ± 0.023 and the “% of Saline TGR” value [1] was 114.7%.

In the case of “scrambled control PMO: c-myc antisense scramble control PMO: ACTGTGAGGGCGATCGCTGC (ACTGTGAGGGCGATCGCTGC; all phosphorodiamidate morpholino (PMO))”, the “effect on c-myc levels in tumor tissue (in words)” value [4] is reported as “no effect”.
